The term IC50 denotes the midpoint of a concentration-inhibition curve.

From BindingDB's records for PubMed 35247754 (China Pharmaceutical University, 2022) come the findings set out here.

The target of test [1] is T1, Sentrin-specific protease 1 (Homo sapiens, UniProt Q9P0U3).
T1 sequence (Q9P0U3 whole entry): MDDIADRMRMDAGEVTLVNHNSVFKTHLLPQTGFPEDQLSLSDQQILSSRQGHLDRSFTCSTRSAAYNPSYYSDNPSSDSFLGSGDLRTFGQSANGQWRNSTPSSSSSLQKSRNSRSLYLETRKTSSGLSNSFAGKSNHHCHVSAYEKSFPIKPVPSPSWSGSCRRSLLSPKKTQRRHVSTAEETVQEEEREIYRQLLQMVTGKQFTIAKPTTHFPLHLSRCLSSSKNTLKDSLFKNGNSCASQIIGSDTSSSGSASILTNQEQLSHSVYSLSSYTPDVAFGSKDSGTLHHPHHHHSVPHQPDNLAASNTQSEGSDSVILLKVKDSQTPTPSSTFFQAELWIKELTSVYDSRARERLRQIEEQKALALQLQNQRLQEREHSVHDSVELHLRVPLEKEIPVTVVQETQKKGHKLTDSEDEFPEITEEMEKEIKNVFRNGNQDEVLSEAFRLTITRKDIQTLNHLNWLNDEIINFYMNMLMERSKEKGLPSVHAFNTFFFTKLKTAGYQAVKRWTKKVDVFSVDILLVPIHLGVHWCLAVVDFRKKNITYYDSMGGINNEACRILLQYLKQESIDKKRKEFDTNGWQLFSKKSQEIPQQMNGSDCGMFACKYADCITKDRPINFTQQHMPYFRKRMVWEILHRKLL
The experiment in a line: Inhibition of human SENP1 using AMC-tagged SUMO1 as substrate incubated for 10 mins by fluorescence based analysis.

Test [2] addresses T2, Sentrin-specific protease 6 (Homo sapiens, UniProt Q9GZR1).
T2 sequence (Q9GZR1 whole entry): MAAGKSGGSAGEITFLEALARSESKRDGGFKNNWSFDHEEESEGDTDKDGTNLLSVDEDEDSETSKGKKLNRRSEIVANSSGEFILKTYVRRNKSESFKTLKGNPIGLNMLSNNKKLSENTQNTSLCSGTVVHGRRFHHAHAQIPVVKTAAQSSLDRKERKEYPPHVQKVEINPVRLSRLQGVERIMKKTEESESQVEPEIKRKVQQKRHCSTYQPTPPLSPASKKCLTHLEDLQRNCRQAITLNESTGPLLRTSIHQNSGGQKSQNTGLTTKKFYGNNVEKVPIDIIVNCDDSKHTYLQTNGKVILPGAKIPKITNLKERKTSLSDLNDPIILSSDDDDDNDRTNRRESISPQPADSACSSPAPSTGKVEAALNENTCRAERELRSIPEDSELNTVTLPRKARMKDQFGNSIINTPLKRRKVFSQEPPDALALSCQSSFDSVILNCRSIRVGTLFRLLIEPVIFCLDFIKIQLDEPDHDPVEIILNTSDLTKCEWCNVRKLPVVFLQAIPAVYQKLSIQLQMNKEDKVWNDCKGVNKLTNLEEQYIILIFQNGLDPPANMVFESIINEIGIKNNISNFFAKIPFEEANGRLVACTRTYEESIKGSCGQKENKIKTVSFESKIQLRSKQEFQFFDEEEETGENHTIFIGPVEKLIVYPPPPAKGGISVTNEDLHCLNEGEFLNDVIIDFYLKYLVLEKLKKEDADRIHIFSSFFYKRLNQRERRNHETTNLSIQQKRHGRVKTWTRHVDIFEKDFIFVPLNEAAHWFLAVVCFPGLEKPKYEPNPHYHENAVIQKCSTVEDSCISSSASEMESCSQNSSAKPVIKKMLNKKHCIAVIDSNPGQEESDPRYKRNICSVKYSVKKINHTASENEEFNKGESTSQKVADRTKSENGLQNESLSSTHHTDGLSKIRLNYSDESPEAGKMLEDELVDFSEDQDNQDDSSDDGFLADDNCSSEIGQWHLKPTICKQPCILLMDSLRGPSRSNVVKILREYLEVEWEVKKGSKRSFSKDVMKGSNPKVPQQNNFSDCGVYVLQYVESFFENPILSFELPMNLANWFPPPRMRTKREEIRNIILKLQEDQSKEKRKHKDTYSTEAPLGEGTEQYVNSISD
Briefly: Inhibition of human SENP6 using AMC-tagged SUMO1 as substrate incubated for 10 mins by fluorescence based analysis.

Test [3] concerns the target T3, Sentrin-specific protease 2 (Homo sapiens, UniProt Q9HC62).
T3 sequence (Q9HC62 whole entry): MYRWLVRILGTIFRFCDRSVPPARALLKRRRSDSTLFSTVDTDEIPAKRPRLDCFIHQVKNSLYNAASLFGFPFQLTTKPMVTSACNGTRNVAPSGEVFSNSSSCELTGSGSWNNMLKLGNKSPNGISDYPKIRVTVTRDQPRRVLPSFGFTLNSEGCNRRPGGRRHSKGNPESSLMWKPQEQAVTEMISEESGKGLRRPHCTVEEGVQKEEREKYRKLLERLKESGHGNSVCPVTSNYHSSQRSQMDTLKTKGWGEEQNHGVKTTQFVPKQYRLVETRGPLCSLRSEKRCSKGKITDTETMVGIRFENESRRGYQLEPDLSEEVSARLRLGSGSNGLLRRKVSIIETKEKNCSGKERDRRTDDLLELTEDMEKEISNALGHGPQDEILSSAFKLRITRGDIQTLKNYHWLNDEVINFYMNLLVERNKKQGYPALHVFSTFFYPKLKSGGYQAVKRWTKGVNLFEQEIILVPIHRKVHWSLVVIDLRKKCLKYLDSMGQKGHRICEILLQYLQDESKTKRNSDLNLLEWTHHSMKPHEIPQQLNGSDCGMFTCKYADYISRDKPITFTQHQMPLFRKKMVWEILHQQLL
Briefly: Inhibition of human SENP2 using AMC-tagged SUMO1 as substrate incubated for 10 mins by fluorescence based analysis.

Consider `COC1=C(N)C(=O)c2nc(-c3nc(C(=O)O)c(C)c(-c4ccc(OC)c(OC)c4O)c3N)ccc2C1=O` [CHEBI:9287], for which the results for the half-maximal inhibitory concentration (IC50) in test [1], in test [2] and in test [3] were 0.52 µM, 5.2 µM and 6.9 µM, respectively.
